Measurements published in patent publication US11432573B2, “Food and beverage sweeteners” (priority 2017, dated 2022).

Experiment: Serum glucose levels in subjects after consuming coffee with sweetener blend or sucrose (Example 1)
Type: in vivo, human
Conditions: for serum glucose (Average): average across three subjects
Method: The following Example summarizes the impact of the above-listed formulas on serum glucose levels within three different subjects. Specifically, 6.0 grams of a blend of Formula-1 through Formula-5 (above) were stirred vigorously into one shot of regular caffeinated expresso coffee that was topped to 350 milliliters of warm water. The coffee was then completely consumed by each subject within 5 minutes, following a time=0 measurement of each subject's serum glucose levels. Each subject's serum glucose levels were subsequently measured at 15 minute intervals, up to 100 minutes following the time=0 measurement. The impact of traditional sucrose on each of the subject's serum glucose levels was also measured, so that the impact of the test sweetener composition on serum glucose levels could be measured relative to such impact by traditional sucrose. The following Tables summarize the serum glucose level measurements observed with each subject (Table-1, Table-2, and Table-3), along with the average across each of the three subjects (Table-4)(the data represent mmol/L serum glucose).

Structure (SMILES): OC[C@H]1O[C@@](CO)(O[C@H]2O[C@H](CO)[C@@H](O)[C@H](O)[C@H]2O)[C@@H](O)[C@@H]1O [Sucrose, sucrose]
- serum glucose (Subject 1, T = 0 (before consumption)): 5.20 mmol/L
- serum glucose (Subject 1, T = 15 minutes): 6.20 mmol/L
- serum glucose (Subject 1, T = 30 minutes): 7.60 mmol/L
- serum glucose (Subject 1, T = 45 minutes): 7.60 mmol/L
- serum glucose (Subject 1, T = 60 minutes): 7.00 mmol/L
- serum glucose (Subject 1, T = 75 minutes): 6.20 mmol/L
- serum glucose (Subject 1, T = 100 minutes): 6.00 mmol/L
- serum glucose (Subject 2, T = 0 (before consumption)): 5.10 mmol/L
- serum glucose (Subject 2, T = 15 minutes): 6.00 mmol/L
- serum glucose (Subject 2, T = 30 minutes): 7.50 mmol/L
- serum glucose (Subject 2, T = 45 minutes): 7.40 mmol/L
- serum glucose (Subject 2, T = 60 minutes): 7.00 mmol/L
- serum glucose (Subject 2, T = 75 minutes): 6.00 mmol/L
- serum glucose (Subject 2, T = 100 minutes): 5.60 mmol/L
- serum glucose (Subject 3, T = 0 (before consumption)): 5.20 mmol/L
- serum glucose (Subject 3, T = 15 minutes): 5.60 mmol/L
- serum glucose (Subject 3, T = 30 minutes): 7.70 mmol/L
- serum glucose (Subject 3, T = 45 minutes): 7.80 mmol/L
- serum glucose (Subject 3, T = 60 minutes): 7.40 mmol/L
- serum glucose (Subject 3, T = 75 minutes): 6.40 mmol/L
- serum glucose (Subject 3, T = 100 minutes): 6.20 mmol/L
- serum glucose (Average) (T = 0 (before consumption)): 5.17 mmol/L
- serum glucose (Average) (T = 15 minutes): 5.93 mmol/L
- serum glucose (Average) (T = 30 minutes): 7.60 mmol/L
- serum glucose (Average) (T = 45 minutes): 7.60 mmol/L
- serum glucose (Average) (T = 60 minutes): 7.13 mmol/L
- serum glucose (Average) (T = 75 minutes): 6.20 mmol/L
- serum glucose (Average) (T = 100 minutes): 5.93 mmol/L
